In patent EP0845217A1, “Inhibiting undesirable taste in oral compositions” (priority 1996, dated 1998):
Where a name gives a salt, the structure may show the parent alone.

How the values were obtained:
[1] = system: purified protein tyrosine phosphatase; experiment: Purified protein tyrosine phosphatase, dephosphorylation of phosphotyrosine-containing peptide substrates; type: biochemical; settings: experiments not described
[2] = target: protein tyrosine phosphatase (Yersinia enterocolitica, UniProt P15273); experiment: Protein tyrosine phosphatase enzyme kinetics with PNPP substrate; type: biochemical; settings: pH 7.5
protein tyrosine phosphatase, sequence (P15273 whole entry): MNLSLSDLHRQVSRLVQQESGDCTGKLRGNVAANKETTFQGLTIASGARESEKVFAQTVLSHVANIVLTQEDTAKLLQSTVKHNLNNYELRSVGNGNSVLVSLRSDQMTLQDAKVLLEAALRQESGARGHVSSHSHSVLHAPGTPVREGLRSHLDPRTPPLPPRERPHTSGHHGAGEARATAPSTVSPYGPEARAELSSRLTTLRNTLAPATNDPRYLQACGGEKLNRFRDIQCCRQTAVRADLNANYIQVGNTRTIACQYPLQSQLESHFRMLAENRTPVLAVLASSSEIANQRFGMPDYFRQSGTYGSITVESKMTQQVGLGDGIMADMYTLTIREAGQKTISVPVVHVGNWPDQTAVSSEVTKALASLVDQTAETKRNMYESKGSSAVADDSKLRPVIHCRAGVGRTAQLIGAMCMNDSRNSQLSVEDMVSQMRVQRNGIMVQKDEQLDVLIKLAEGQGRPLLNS
Procedure: Enzyme kinetics are done using purified protein tyrosine phosphatase from the bacteria, Yersinia enterocolitica, recombinant form, with PNPP as the substrate. The enzyme kinetics experiments are done similarly to the kinetics experiments for alkaline phosphatase and acid phosphatase described above.
Each final reaction mixture contains 20 mM Tris, 0.1 % beta-mercaptoethanol, and 0.1% bovine serum albumin at pH 7.5. The ionic strength of each reaction mixture is the same and is balanced by the addition of the appropriate amount of NaCl. Activity of this enzyme is extremely sensitive to ionic strength. Each reaction is begun with the addition of tyrosine phosphatase. The formation of PNP is monitored by measuring the OD405/490 at 30 second intervals over a 30 minute period. The enzyme velocity is linear over this time period under these conditions. The Ki values are calculated as described above for alkaline phosphatase (Table 2).

alkaline phosphatase = alkaline phosphatase (Bos taurus, UniProt P19111); type: biochemical, bovine; settings: PNPP substrate
alkaline phosphatase, sequence (P19111 20-506): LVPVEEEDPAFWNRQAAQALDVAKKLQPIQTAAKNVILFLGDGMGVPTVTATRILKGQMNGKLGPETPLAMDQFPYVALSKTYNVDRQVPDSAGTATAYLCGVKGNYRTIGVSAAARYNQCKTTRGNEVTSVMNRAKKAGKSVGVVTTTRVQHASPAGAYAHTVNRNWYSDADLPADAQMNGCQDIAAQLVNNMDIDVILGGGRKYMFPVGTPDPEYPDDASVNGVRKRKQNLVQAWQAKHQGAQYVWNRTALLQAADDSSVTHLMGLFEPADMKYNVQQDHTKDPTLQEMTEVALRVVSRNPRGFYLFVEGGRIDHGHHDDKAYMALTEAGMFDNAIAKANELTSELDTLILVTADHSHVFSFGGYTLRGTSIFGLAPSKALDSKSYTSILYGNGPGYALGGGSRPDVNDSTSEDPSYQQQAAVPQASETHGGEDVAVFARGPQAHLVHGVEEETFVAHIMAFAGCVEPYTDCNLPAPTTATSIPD
Procedure: Enzyme kinetics experiments are done using purified alkaline phosphatase from bovine intestine and the substrate para-nitrophenyl phosphate (PNPP). The formation of colored para-nitrophenol (PNP) from colorless PNPP is followed by measuring the color formation in the presence of inhibitor at several concentrations.
Specifically, enzyme reactions are done in a volume of 200 ul containing 12.5 mU/ml alkaline phosphatase, PNPP at concentrations between 0.5-200 mM, and an inhibitor at concentrations between 0-100 mM. […] Phosphoserine is the natural substrate for this enzyme. The final buffer solution is 0.9 M diethanolamine and 0.5 mM […], pH 9.8, mixed 3:1 (v:v) with water. Reactions are done in a 96-well microtiter plate. The enzyme reaction is initiated by the addition of the enzyme. Each reaction mixture is done in triplicate. The enzyme reaction is monitored by measuring the optical density (OD) at 405 nm, with a reference OD of 490 nm. The OD's are read every 30 seconds over a 15 minute period at room temperature. PNP concentration is determined based on a standard curve correlating OD405/490 vs. PNP concentration. […] The data is then transformed and plotted as the Kmapp / Vmax. vs. inhibitor concentration. From these plots the dissociation constant of the enzyme-inhibitor complex, Ki, is determined. The x-intercept on this plot equals (-Ki). […]

mud puppy taste cells = experiment: Response of isolated taste cells to bitter-tasting compounds, intracellular calcium fluorescence; type: cell-based; settings: for effect on taste cell response to denatonium benzoate: inhibitor mixed with denatonium benzoate; for effect on taste cell response to dextromethorphan: inhibitor mixed with dextromethorphan; for taste cell response to bitter tasting compound: bitter compound alone
Procedure: Taste cells are isolated from the mud puppy, a type of salamander (S. C. Kinnamon, et al, Chemical Senses 13: 355 - 366, 1988). Briefly, a fresh mud puppy tongue is incubated with collagenase, the non-gustatory epithelium is peeled off the surface, and individual taste buds are gently drawn into a micropipette using a dissecting microscope at 50X magnification. The taste buds are plated into small vessels, that are coated with Cell-Tak, containing culture media. The taste cells can remain viable up to 18 days and maintain normal functions (C. Ruiz, et al, Experimental Cell Biology of Taste and Olfaction, Current Techniques and Protocols, A. I. Spielman and J. G. Brand, eds., CRC Press, 1995, pp. 79 - 84). The taste cells are labeled intracellularly with a marker compound that fluoresces in a dose-dependent fashion to calcium ion concentration. Since an increase in the intracellular calcium ion concentration is one of the last steps in converging biochemical signal transduction pathways for bitterness, the fluorescent marker correlates with taste cell response to bitterness (D. Restrepo, et al, Experimental Cell Biology of Taste and Olfaction, Current Techniques and Protocols, A. I. Spielman and J. G. Brand, eds., CRC Press, 1995, pp. 387 - 398). Labeled taste cells are observed microscopically using image analysis software. Using a micropipette, taste cells are exposed to bitter-tasting compounds by adding the compounds in media near the taste cell. Cells that respond to the bitter-tasting compound show an increase in fluorescence intensity. Bitter inhibitors are tested by adding them to the test solution with the bitter-tasting compound. The response of individual taste cells to bitter-tasting compounds and to bitter-tasting compounds plus inhibitor are monitored by measuring the fluorescent intensity using a microscope. Images are stored electronically and image analysis software is used to analyze the data (D. Restrepo, et al, Biophysical Journal 64: 1961 - 1966, 1993).

[3] = system: Pig taste tissue tyrosine phosphatase; experiment: Protein tyrosine phosphatase activity of pig taste tissue homogenate, phosphotyrosine peptide substrates, ELISA; type: biochemical; settings: for % Total Phosphatase Activity: pig taste tissue 615 ug/ml protein, 10°C for 20 min
Procedure: Taste tissue (circumvallate papillae) is dissected from fresh pig tongue and homogenized in buffer. Protein tyrosine phosphatase activity is measured using peptides containing phosphotyrosine as the substrate. Two substrates are used. […] The removal of phosphate from the phosphotyrosines is determined by measurement of phosphotyrosine concentration, using an ELISA, after reaction of the peptide substrate with pig taste tissue. The activity of purified tyrosine phosphatase is determined in each experiment as a control.
In this experiment, pig taste tissue and peptide substrate are combined in a buffer of 20 mM Tris, 0.1% beta-mercaptoethanol, and 1 mg/ml BSA, pH 7.0. A total volume of 100 ul in each well of a 96-well microtiter plate is used. […] The enzyme reaction is done at 10°C for 20 min. The reaction is stopped by the addition of 25 ul 400 uM sodium orthovanadate. […]
In another experiment using the same conditions as described above, the tyrosine dephosphorylation of peptide substrate 1 is measured after 1, 2, 3, 4, 5, 6, 7 and 8 minute reactions at room temperature with pig taste tissue (41 ug/ml protein) as the enzyme source.

For `C=CCc1ccc(OP(=O)(O)O)c(OC)c1` [EMP, eugenylmonophosphate], the “effect on tyrosine phosphatase activity against peptide substrates” value (shortened to “effect on tyrosine phosphatase activity”) [1] was “inhibits the activity”, the Ki ([2]; 22°C) was 3.7 mM and the Ki ([2]; 37°C) was 3.3 mM. The “type of inhibition of alkaline phosphatase” value (alkaline phosphatase) was “competitively inhibited”.
In the case of `CC1CCC(C(C)C)C(OP(=O)(O)O)C1` (stereo not drawn) [MMP, menthylmonophosphate], the “type of inhibition of alkaline phosphatase” value (alkaline phosphatase) is reported as “competitively inhibited”.
`O=P(O)(O)CP(=O)(O)O` [Methylene diphosphonic acid] was tested, and the “share of taste cells tested with small decrease in response to denatonium benzoate” value (mud puppy taste cells; denatonium benzoate) was 50% and the “effect on taste cell response to denatonium benzoate” value (shortened to “effect … to denatonium benzoate”) (mud puppy taste cells) was “small decrease in response”.
With `NCCC(O)(P(=O)(O)O)P(=O)(O)O` [Pamidronic acid, pamidronic acid] the “effect … to denatonium benzoate” value (mud puppy taste cells) was “small reduction in response” and the “effect on taste cell response to dextromethorphan” value (“effect … to dextromethorphan” for short) (mud puppy taste cells) was “small reduction in response”.
With `N[C@@H](COP(=O)(O)O)C(=O)O` [Phosphoserine, reference compound] the “type of inhibition of alkaline phosphatase” value (alkaline phosphatase) was “competitively inhibited”.
`Cc1ccc(C(C)C)c(OP(=O)(O)O)c1` [ThMP, thymylmonophosphate] was tested, and the Ki ([2]; 22°C) was 3.6 mM and the “type of inhibition of alkaline phosphatase” value (alkaline phosphatase) was “competitively inhibited”.
`F` [calcium fluoride] was tested, and the “effect on tyrosine phosphatase activity” value [1] was “does not affect tyrosine phosphatase activity”, the “% Total Phosphatase Activity” value ([3]; Peptide Substrate 1) was 109% and the “% Total Phosphatase Activity” value ([3]; Peptide Substrate 2) was 96%. For the same molecule, the “time until all phosphates are removed from peptide substrate 1” value ([3]; pig taste tissue 41 ug/ml protein, room temperature, calcium fluoride added, concentration not given) was 2 min.
With `CN(C)CCC(c1ccc(Cl)cc1)c1ccccn1` (stereo not drawn) [chlorpheniramine maleate] the “taste cell response to bitter tasting compound” value (mud puppy taste cells) was “increase in intracellular calcium concentration”.
`CC[N+](CC)(CC(=O)Nc1c(C)cccc1C)Cc1ccccc1` [denatonium benzoate] was tested, and the “taste cell response to bitter tasting compound” value (mud puppy taste cells) was “increase in intracellular calcium concentration”.
For `COc1ccc2c(c1)[C@]13CCCC[C@@H]1[C@H](C2)N(C)CC3` [dextromethorphan], the “taste cell response to bitter tasting compound” value (mud puppy taste cells) was “increase in intracellular calcium concentration”.
In the case of `C=C1[C@@H](O)[C@@H]2O[C@]3(CC[C@H](/C=C/[C@@H](C)[C@@H]4CC(C)=C[C@@]5(O[C@H](C[C@@](C)(O)C(=O)O)CC[C@H]5O)O4)O3)CC[C@H]2O[C@@H]1[C@@H](O)C[C@H](C)[C@H]1O[C@@]2(CCCCO2)CC[C@H]1C` [okadaic acid], the “effect … to denatonium benzoate” value (mud puppy taste cells) is reported as “has no effect on response” and the “effect … to dextromethorphan” value (mud puppy taste cells) is reported as “has no effect on response”.
In the case of `O=C(O)CP(=O)(O)O` [phosphonic acetic acid], the “effect … to denatonium benzoate” value (mud puppy taste cells) is reported as “small reduction in response” and the “effect … to dextromethorphan” value (mud puppy taste cells) is reported as “small reduction in response”.
With `N[C@@H](Cc1ccc(OP(=O)(O)O)cc1)C(=O)O` [phosphotyrosine] the “effect on taste cell response to chlorpheniramine maleate” value (mud puppy taste cells; inhibitor mixed with chlorpheniramine maleate) was “decreases the response”, the “effect … to denatonium benzoate” value (mud puppy taste cells) was “decreases the response” and the “effect … to dextromethorphan” value (mud puppy taste cells) was “decreases the response”. For the same molecule, the “effect on tyrosine phosphatase activity” value [1] was “inhibit the dephosphorylation” and the “time until complete dephosphorylation of substrate 1” value ([3]; pig taste tissue 41 ug/ml protein, room temperature, final concentration 10 nmoles/ml) was 7 min.
In the case of `[Na+].[Na+].[Na+].[O]=[V]([O-])([O-])[O-]` [sodium orthovanadate], the “effect … to denatonium benzoate” value (mud puppy taste cells) is reported as “inhibits the response”, the “effect on tyrosine phosphatase activity” value [1] is reported as “inhibits the tyrosine phosphatase activity” and the “% Total Phosphatase Activity” value ([3]; Peptide Substrate 1) is reported as 32%. The “% Total Phosphatase Activity” value ([3]; Peptide Substrate 2) was 46% and the “time until complete dephosphorylation of substrate 1” value ([3]; pig taste tissue 41 ug/ml protein, room temperature, final concentration 100 nmoles/ml) was 7 min.
